The molecules below were run against T1, E-selectin (Homo sapiens, UniProt P16581) (assay: Inhibitory concentration of compound to block the binding of sLE Xto E-selectin).
T1 sequence (P16581 whole entry): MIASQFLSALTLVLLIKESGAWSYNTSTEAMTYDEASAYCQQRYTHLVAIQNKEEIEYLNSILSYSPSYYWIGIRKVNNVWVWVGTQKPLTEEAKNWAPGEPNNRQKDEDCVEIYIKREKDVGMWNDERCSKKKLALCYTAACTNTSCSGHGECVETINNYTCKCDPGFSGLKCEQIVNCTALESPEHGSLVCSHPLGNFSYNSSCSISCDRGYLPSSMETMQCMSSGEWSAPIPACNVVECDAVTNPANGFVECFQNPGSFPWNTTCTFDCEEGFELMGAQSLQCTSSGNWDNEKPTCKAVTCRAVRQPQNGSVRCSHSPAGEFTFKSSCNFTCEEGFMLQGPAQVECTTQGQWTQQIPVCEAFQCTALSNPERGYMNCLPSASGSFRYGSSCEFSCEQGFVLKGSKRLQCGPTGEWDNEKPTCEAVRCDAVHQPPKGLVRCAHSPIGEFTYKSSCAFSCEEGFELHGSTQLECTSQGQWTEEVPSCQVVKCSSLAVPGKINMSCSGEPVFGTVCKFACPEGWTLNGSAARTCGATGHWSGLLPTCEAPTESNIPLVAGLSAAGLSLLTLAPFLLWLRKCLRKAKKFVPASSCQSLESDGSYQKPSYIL

Structure (SMILES)	IC50
CC1OC(OC2CCCCC2OC2OC(C(N)=O)C(O)C(O[C@@H](CC3CCCCC3)C(=O)O)C2O)C(O)C(O)C1O (stereo not given in full)	> 10 mM
CC1OC(OC2CCCCC2OC2OC(CN)C(O)C(O[C@@H](Cc3ccccc3)C(=O)O)C2O)C(O)C(O)C1O (stereo not given in full)	> 10 mM
COC(=O)CCCCCCCCO[C@@H]1OC(CO)[C@@H](O[C@@H]2O[C@@H](CO)[C@H](O)[C@H](O[C@]3(C(=O)O)C[C@@H](O)[C@@H](NC(C)=O)[C@@H](C(O)C(O)CO)O3)[C@@H]2O)[C@@H](O[C@@H]2O[C@H](C)[C@@H](O)[C@H](O)C2O)[C@@H]1NC(C)=O (stereo not given in full)	1 mM
C[C@@H]1O[C@@H](O[C@@H]2CCCC[C@H]2O[C@@H]2O[C@@H](CO)[C@H](O)[C@H](O[C@@H](Cc3ccccc3)C(=O)O)[C@@H]2O)[C@@H](O)[C@@H](O)[C@@H]1O	0.35 mM
C[C@@H]1O[C@@H](O[C@@H]2CCCC[C@H]2O[C@@H]2O[C@@H](C(=O)O)[C@H](O)[C@H](O[C@@H](CC3CCCCC3)C(=O)O)[C@@H]2O)[C@@H](O)[C@@H](O)[C@@H]1O	> 10 mM
C[C@@H]1O[C@@H](O[C@@H]2CCCC[C@H]2O[C@@H]2O[C@@H](C(=O)O)[C@H](O)[C@H](O[C@@H](Cc3ccccc3)C(=O)O)[C@@H]2O)[C@@H](O)[C@@H](O)[C@@H]1O	> 10 mM
C[C@@H]1O[C@@H](O[C@@H]2CCCC[C@H]2O[C@@H]2O[C@@H](COS(=O)(=O)O)[C@H](O)[C@H](O[C@@H](Cc3ccccc3)C(=O)O)[C@@H]2O)[C@@H](O)[C@@H](O)[C@@H]1O	> 10 mM
C[C@@H]1O[C@@H](O[C@@H]2CCCC[C@H]2O[C@@H]2O[C@@H](CO)[C@H](O)[C@H](O[C@@H](CC3CCCCC3)C(=O)O)[C@@H]2O)[C@@H](O)[C@@H](O)[C@@H]1O	0.08 mM
CC(=O)NCC1OC(OC2CCCCC2OC2OC(C)C(O)C(O)C2O)C(O)C(OC(Cc2ccccc2)C(=O)O)C1O (stereo not given)	> 10 mM
CC1OC(OC2CCCCC2OC2OC(CNC(=O)c3ccccc3)C(O)C(OC(Cc3ccccc3)C(=O)O)C2O)C(O)C(O)C1O (stereo not given)	> 10 mM
